The source of these data is patent US6121322A, “Azulene derivatives” (Boehringer Mannheim GmbH, priority 1997, dated 2000).

Values after ≈ are worked out from the molar mass of the structure shown. “Also recorded” adds a separate entry of the source.

The test system of series [1] is TNFα synthesis. Put plainly: TNFα Synthesis Assay (LPS-stimulated human leukocytes, TNFα in supernatant by enzyme immunoassay). The series is classed as cell-based. The following applies: Leukocyte, 37° C., 2 hours, read-out: TNFα synthesis inhibition in vitro IC50. As for the experimental part: Experimental Procedure in Vitro
Human leukocytes are obtained from heparinized full blood over a Ficol gradient, washed with RPMI 1640 medium having the prescribed additives and adjusted in the same medium to a cell count of 1×10^6 cells/ml. 20 μl of the substance to be tested in 10-fold concentration, 20 μl of an LPS solution of 4 μg/ml and 160 μl of the adjusted cell suspension are incubated in the individual wells of a 96 well culture plate at 37° C. for 2 hours. The experiments are carried out as double determinations. At the end of the incubation period the plates are carefully shaken and centrifuged. Two samples each of 50 μl are withdrawn from the clear culture supernatant for the analysis of TNFα.
Analysis of TNFα in the Cell Cupernatant by Enzyme Immunoassay
Nunc-Maxisorb plates are coated with a mouse-anti-human-TNFα antibody (1 μg/ml, 50 μl/well, Dianova/Pharmingen 18631D, carbonate buffer pH 9.5) and free binding capacity is saturated with a gelatine- and serum albumin-containing blocking buffer. After washing the plates there are pipetted in double determination in each case 25 μl of the analyte as well as on each plate a series of standard concentrations. For the detection of the analyte, 25 μl of a biotinylated mouse-anti-human-TNFα antibody ([…] 25 μl/well, Dianova/Pharmingen 18642D, blocking buffer) are added and the plates are shaken at room temperature for 2 hours. After washing incubation is carried out with streptavidin-alkaline phosphatase conjugate (50 μl/well) and finally with 4-nitrophenyl phosphate and evaluation is carried out on a photometer. The concentrations of the measured samples are determined using a computer program based on a calibration curve from the co-determined standard concentrations.
Determination of the IC50
The percentage inhibition for the individual sample is calculated by comparing the TNFα concentration obtained for the measured samples with the non-inhibited samples. The IC50 is determined by computer from the concentration relationship of the inhibitor value.

Series [2] concerns TNFα. The following applies: cited from earlier work.
The conditions of series [3]: in vivo; cited from earlier work.
In series [4] the test system is HIV. The following applies: cited from earlier work.
In series [5] the test system is PDE4. The following applies: cited from earlier work.
Series [6] concerns TNFα. The following applies: in vivo; cited from earlier work.
For series [7], the system named is animal models for multiple sclerosis. The following applies: animal experiments; cited from earlier work.

The IC50 is the concentration that inhibits the measured activity by half. Consider `CCOC(=O)c1c2ccc(CC(=O)NOCC(=O)N(CCOC)CCOC)ccc-2c(C(=O)OCC)c1N` [Example 4, Diethyl 2-amino-6-{[2-oxo-2-(N,N-bis-2-methoxyethyl-amino)-ethoxycarbamoyl]-methyl}-azulene-1,3-dicarboxylate], for which the concentration for half-maximal inhibition (IC50) in series [1] came to 0.03 µg/mL (≈ 0.0562 µM).
With `CCOC(=O)c1c2ccc(CC(=O)NOCCN3CCOCC3)ccc-2c(C(=O)OCC)c1N` [Example 20], the IC50 in series [1] was determined as 0.05 µg/mL (≈ 0.106 µM).
In the case of `CCOC(=O)c1c2ccc(CC(=O)NOC(=O)N3CCN(C)CC3)ccc-2c(C(=O)OCC)c1N` [Example 31, Diethyl 2-amino-6-{[(4-methyl-piperazino)-carbonyloxy-carbamoyl]-methyl}-azulene-1,3-dicarboxylate], in series [1], the IC50 is 0.1 µg/mL (≈ 0.206 µM).
Consider `O=C1CCC(N2C(=O)c3ccccc3C2=O)C(=O)N1` (stereo not shown) [Thalidomide], for which the TNFα blockade entry in series [2] is “weak TNFα blockade”. In series [3], the side effects result is listed as “teratogenic side effects”. For the same compound, the “suppression of the proliferation of HIV” value in series [4] is on record as “supresses the proliferation of HIV”.
Take `COc1ccc(C2CNC(=O)C2)cc1OC1CCCC1` (stereo not shown) [rolipram]: the “inhibition of PDE4” value in series [5] was “inhibits PDE4”. Moreover, the “inhibition of the synthesis of TNFα” value in series [6] is “inhibition of the synthesis of TNFα in vitro and in vivo”. In series [7], the “activity in animal models for multiple sclerosis” value is on record as “very good activity”. Moreover, the side effects entry in series [3] is on record as “emetic activity; also recorded: massive side effects”.
